In the supplement of paper PMC13207355:
± gives the standard deviation of the averaged measurements.

How the values were obtained:
Conditions in all cases: exposure time: 72 h
FT3469 [1] = normal neural stem cell line; experiment: phenotypic distance (Euclidean, principal components) from DMSO controls (arbitrary units); higher = stronger morphological change
E34 [2] = patient-derived glioblastoma stem cells of proneural subtype; experiment: as above
E13 [3] = patient-derived glioblastoma stem cells of classical subtype; experiment: as above
E28 [4] = patient-derived glioblastoma stem cells of classical subtype; experiment: as above
E31 [5] = patient-derived glioblastoma stem cells of proneural subtype; experiment: as above
E57 [6] = patient-derived glioblastoma stem cells of mesenchymal subtype; experiment: as above
E21 [7] = patient-derived glioblastoma stem cells of mesenchymal subtype; experiment: as above
FT3469 [8] = experiment: surviving fraction (nuclei count normalised to DMSO); higher = more cells surviving (less toxic)
E34 [9] = experiment: as above
E13 [10] = experiment: as above
E28 [11] = experiment: as above
E31 [12] = experiment: as above
E57 [13] = experiment: as above
E21 [14] = experiment: as above
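Wherever phenotypic distance (Euclidean, principal components) from DMSO controls is given: cell Painting imaging in 384-well plates, CellProfiler features reduced to at least 20 principal components, Euclidean distance versus same-plate DMSO vehicle wells (0.1% v/v), median over six images per well.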
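Wherever surviving fraction (nuclei count normalised to DMSO) is given: nuclei counted by high-content imaging of Hoechst-stained cells in laminin-coated 384-well plates, relative to 0.1% DMSO vehicle wells, with staurosporine as cell-death control.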

OC[C@H]1NC[C@H](O)[C@@H](O)[C@@H]1O [1-Deoxynojirimycin]
Conditions	phenotypic distance	surviving fraction
E13 [3], 4.1 nM	0.633 ± 0.14	–
E13 [3], 12.3 nM	0.606 ± 0.04	–
E13 [3], 37 nM	0.865 ± 0.041	–
E13 [3], 111.1 nM	0.487 ± 0.12	–
E13 [3], 333.3 nM	0.742 ± 0.2	–
E13 [3], 1000 nM	0.501 ± 0.13	–
E13 [3], 3000 nM	0.63 ± 0.088	–
E13 [10], 4.1 nM	–	0.97 ± 0.11
E13 [10], 12.3 nM	–	0.945 ± 0.013
E13 [10], 37 nM	–	0.8513 ± 0.0051
E13 [10], 111.1 nM	–	0.99 ± 0.11
E13 [10], 333.3 nM	–	1.01 ± 0.18
E13 [10], 1000 nM	–	1.01 ± 0.13
E13 [10], 3000 nM	–	0.963 ± 0.07
E21 [7], 4.1 nM	0.765 ± 0.32	–
E21 [7], 12.3 nM	0.361 ± 0.018	–
E21 [7], 37 nM	0.681 ± 0.079	–
E21 [7], 111.1 nM	0.62 ± 0.23	–
E21 [7], 333.3 nM	0.677 ± 0.17	–
E21 [7], 1000 nM	0.652 ± 0.047	–
E21 [7], 3000 nM	0.534 ± 0.12	–
E21 [14], 4.1 nM	–	0.994 ± 0.06
E21 [14], 12.3 nM	–	1.02 ± 0.011
E21 [14], 37 nM	–	0.9516 ± 0.0082
E21 [14], 111.1 nM	–	0.977 ± 0.056
E21 [14], 333.3 nM	–	1.04 ± 0.048
E21 [14], 1000 nM	–	0.995 ± 0.016
E21 [14], 3000 nM	–	0.914 ± 0.1
E28 [4], 4.1 nM	1.27 ± 1.1	–
E28 [4], 12.3 nM	1.73 ± 1.8	–
E28 [4], 37 nM	0.489 ± 0.0059	–
E28 [4], 111.1 nM	0.561 ± 0.14	–
E28 [4], 333.3 nM	0.769 ± 0.13	–
E28 [4], 1000 nM	0.642 ± 0.045	–
E28 [4], 3000 nM	0.664 ± 0.026	–
E28 [11], 4.1 nM	–	1.02 ± 0.069
E28 [11], 12.3 nM	–	1.01 ± 0.028
E28 [11], 37 nM	–	1.009 ± 0.0082
E28 [11], 111.1 nM	–	1.05 ± 0.0041
E28 [11], 333.3 nM	–	1.04 ± 0.058
E28 [11], 1000 nM	–	0.997 ± 0.015
E28 [11], 3000 nM	–	1.02 ± 0.2
E31 [5], 4.1 nM	0.644 ± 0.29	–
E31 [5], 12.3 nM	0.558 ± 0.24	–
E31 [5], 37 nM	0.579 ± 0.015	–
E31 [5], 111.1 nM	0.597 ± 0.2	–
E31 [5], 333.3 nM	0.552 ± 0.28	–
E31 [5], 1000 nM	0.479 ± 0.03	–
E31 [5], 3000 nM	0.614 ± 0.078	–
E31 [12], 4.1 nM	–	0.951 ± 0.052
E31 [12], 12.3 nM	–	0.95 ± 0.018
E31 [12], 37 nM	–	0.979 ± 0.065
E31 [12], 111.1 nM	–	0.918 ± 0.12
E31 [12], 333.3 nM	–	0.988 ± 0.094
E31 [12], 1000 nM	–	1.03 ± 0.059
E31 [12], 3000 nM	–	0.988 ± 0.18
E34 [2], 4.1 nM	1.35 ± 1.2	–
E34 [2], 12.3 nM	0.664 ± 0.15	–
E34 [2], 37 nM	0.60231 ± 0.00028	–
E34 [2], 111.1 nM	0.433 ± 0.24	–
E34 [2], 333.3 nM	0.758 ± 0.14	–
E34 [2], 1000 nM	0.619 ± 0.093	–
E34 [2], 3000 nM	0.541 ± 0.065	–
E34 [9], 4.1 nM	–	1.02 ± 0.077
E34 [9], 12.3 nM	–	0.878 ± 0.018
E34 [9], 37 nM	–	0.9719 ± 0.0051
E34 [9], 111.1 nM	–	0.948 ± 0.018
E34 [9], 333.3 nM	–	0.937 ± 0.05
E34 [9], 1000 nM	–	0.997 ± 0.12
E34 [9], 3000 nM	–	1.02 ± 0.033
E57 [6], 4.1 nM	0.636 ± 0.055	–
E57 [6], 12.3 nM	0.609 ± 0.089	–
E57 [6], 37 nM	0.696 ± 0.18	–
E57 [6], 111.1 nM	0.505 ± 0.21	–
E57 [6], 333.3 nM	0.518 ± 0.12	–
E57 [6], 1000 nM	0.442 ± 0.3	–
E57 [6], 3000 nM	0.63 ± 0.071	–
E57 [13], 4.1 nM	–	0.9939 ± 0.0068
E57 [13], 12.3 nM	–	0.961 ± 0.026
E57 [13], 37 nM	–	0.936 ± 0.025
E57 [13], 111.1 nM	–	0.955 ± 0.046
E57 [13], 333.3 nM	–	1.03 ± 0.055
E57 [13], 1000 nM	–	0.978 ± 0.067
E57 [13], 3000 nM	–	0.9675 ± 0.0049
FT3469 [1], 4.1 nM	0.939 ± 0.66	–
FT3469 [1], 12.3 nM	0.685 ± 0.061	–
FT3469 [1], 37 nM	0.554 ± 0.023	–
FT3469 [1], 111.1 nM	0.511 ± 0.058	–
FT3469 [1], 333.3 nM	0.634 ± 0.0044	–
FT3469 [1], 1000 nM	0.682 ± 0.016	–
FT3469 [1], 3000 nM	0.673 ± 0.011	–
FT3469 [8], 4.1 nM	–	0.965 ± 0.016
FT3469 [8], 12.3 nM	–	0.951 ± 0.14
FT3469 [8], 37 nM	–	0.953 ± 0.047
FT3469 [8], 111.1 nM	–	1.02 ± 0.14
FT3469 [8], 333.3 nM	–	0.889 ± 0.083
FT3469 [8], 1000 nM	–	1.04 ± 0.042
FT3469 [8], 3000 nM	–	0.9 ± 0.021
